“Also recorded” adds a separate entry of the source.
Legend:
[1] = test system: normal dermal fibroblast cultures; assay: SRB cell viability, normal fibroblasts; type: cell-based, human; settings: SRB assay
Description: (§1) The biological relevance of the screen was considerable since cells used for the screen were obtained from patients with hyperplastic wounds as well as healthy tissue. The experiments were repeated in triplicate within 96 well plates, with each well containing 4000 cells treated with between 0.1 1.0, or 10 μM of compound or DMSO as a control. The Sulforhodamine B assay (SRB) was used to measure cell viability.

[2] = test system: primary cells derived from human aggressive fibromatosis tumours; assay: BrdU incorporation proliferation assay, human AF tumour cells; type: cell-based; settings: 5 days, vs DMSO
Description: (§2) Primary cell cultures from the human AF tumour and normal fascial tissue samples were established. Monolayer cultures were cultured in DMEM supplemented with 10% fetal bovine serum and maintained at 37° C. in 5% CO2. Cells were divided when confluent and experiments were performed between the first and fifth passages.
(§3) Cell viability was measured using the Trypan Blue Dye Exclusion method. Cells were stained with Trypan Blue Dye at a 1:1 ratio, and both live (clear) and dead (blue) cells were accounted for. Proliferation was measured using 5-bromo-2-deoxy-uridine (BrdU) Incorporation assay. After BrdU incubation for 12 hours, cells with incorporated BrdU were identified using […] anti-BrdU antibody and horse anti-mouse antibody conjugated to Alkaline Phosphatase. Presence of BrdU was detected using Alkaline Phosphatase substrate. Percentage of positively stained nuclei out of total nuclei was analyzed over 10 high-powered fields.

[3] = test system: primary cells derived from human AF tumours; assay: Trypan Blue cell viability, human AF tumour cells; type: cell-based; settings: 5 days, vs 0.1% DMSO
Description: as §2, §3

β-catenin [4] = assay: Western blot of β-catenin in wounds of Tcf mice; type: in vivo, mouse; settings: 40 mg/kg daily intraperitoneal, 14 days post-wounding, vs control
Source text: A Tcf-reporter construct containing the lacZ gene downstream of a c-Fos minimal promoter and three consensus Tcf-binding motifs was constructed. Upon binding of β-catenin/Tcf complex to Tcf motifs, the expression of lacZ is activated. Tcf mice were wounded as described previously: two 4 mm diameter full-thickness skin wounds were generated using a dermal biopsy punch (Miltex Instrument Company, York, Pa., USA). […] At 14 days post-wounding, wound sizes were examined, and wound tissues were collected for RNA and protein extraction and fixed for histological examination. Tissue samples were washed twice with PBS and lysed with Reporter Gene Assay Lysis Buffer (Roche). Lysates were centrifuged at 16,000×g for 5 minutes to remove cell debris and quantified using the Bicinchoninic Acid (BCA) Protein Assay (Pierce). Equal amounts of total protein were separated by electrophoresis through an SDS-polyacrylamide gel, transferred to a nitrocellulose membrane (Amersham), and immunoblotted overnight at 4° C. with primary antibodies against phosphoGSK3β ([…], rabbit polyclonal, New England Biolabs), β-catenin (mouse monoclonal, Upstate Biotechnology), total GSK3β (mouse monoclonal, Transduction Laboratories), and GAPDH (mouse monoclonal, Upstate Biotechnology). Horseradish Peroxidase (HRP)-tagged secondary antibodies and Enhanced ChemiLuminescence (Amersham) were used to detect hybridization. […]

β-catenin [5] = assay: Western blot/densitometry of β-catenin in human AF tumour primary cell cultures; type: cell-based
Description: Primary cell cultures from the human AF tumour and normal fascial tissue samples were established. Monolayer cultures were cultured in DMEM supplemented with 10% fetal bovine serum and maintained at 37° C. in 5% CO2. Cells were divided when confluent and experiments were performed between the first and fifth passages. […] Tissue samples were washed twice with PBS and lysed with Reporter Gene Assay Lysis Buffer (Roche). Lysates were centrifuged at 16,000×g for 5 minutes to remove cell debris and quantified using the Bicinchoninic Acid (BCA) Protein Assay (Pierce). Equal amounts of total protein were separated by electrophoresis through an SDS-polyacrylamide gel, transferred to a nitrocellulose membrane (Amersham), and immunoblotted overnight at 4° C. with primary antibodies against phosphoGSK3β ([…], rabbit polyclonal, New England Biolabs), β-catenin (mouse monoclonal, Upstate Biotechnology), total GSK3β (mouse monoclonal, Transduction Laboratories), and GAPDH (mouse monoclonal, Upstate Biotechnology). Horseradish Peroxidase (HRP)-tagged secondary antibodies and Enhanced ChemiLuminescence (Amersham) were used to detect hybridization. Densitometery was performed using the AlphaEaseFC software (Alpha Innotech). Western blotting was performed in triplicates to ensure reproducibility.

[6] = test system: cultured cells derived from hyperplastic wounds; assay: SRB cell viability, hyperplastic wound cells; type: cell-based, human; settings: hyperplastic wound cell cultures, vs DMSO control, SRB assay
Description: as §1

hyperplastic scars = assay: TGF-β induced hyperplastic scar model; type: in vivo, mouse; settings: mice, TGF-β injected prior to wounding, 4 mm punch wounds, 40 mg/kg daily
Description: Both oral and intraperitoneal administration routes were evaluated (40 mg/kg body weight, daily; 0.1% DMSO as control).

β-catenin [7] = assay: Western blot/densitometry of β-catenin in human fibroblast cells; type: cell-based
Description: (§4) Tissue samples were washed twice with PBS and lysed with Reporter Gene Assay Lysis Buffer (Roche). Lysates were centrifuged at 16,000×g for 5 minutes to remove cell debris and quantified using the Bicinchoninic Acid (BCA) Protein Assay (Pierce). Equal amounts of total protein were separated by electrophoresis through an SDS-polyacrylamide gel, transferred to a nitrocellulose membrane (Amersham), and immunoblotted overnight at 4° C. with primary antibodies against phosphoGSK3β ([…], rabbit polyclonal, New England Biolabs), β-catenin (mouse monoclonal, Upstate Biotechnology), total GSK3β (mouse monoclonal, Transduction Laboratories), and GAPDH (mouse monoclonal, Upstate Biotechnology). Horseradish Peroxidase (HRP)-tagged secondary antibodies and Enhanced ChemiLuminescence (Amersham) were used to detect hybridization. Densitometery was performed using the AlphaEaseFC software (Alpha Innotech). Western blotting was performed in triplicates to ensure reproducibility. Hyperplastic wounds are characterized by elevated β-catenin levels during the proliferative phase.

[8] = test system: 4 mm full thickness cutaneous wounds; assay: Wound/scar size in Tcf mice, systemic Nefopam; type: in vivo, mouse; settings: 4 mm punch wound, 40 mg/kg daily systemic, day 14 post-wounding, vs saline carrier
Source text: A Tcf-reporter construct containing the lacZ gene downstream of a c-Fos minimal promoter and three consensus Tcf-binding motifs was constructed. Upon binding of β-catenin/Tcf complex to Tcf motifs, the expression of lacZ is activated. Tcf mice were wounded as described previously: two 4 mm diameter full-thickness skin wounds were generated using a dermal biopsy punch (Miltex Instrument Company, York, Pa., USA). […] At 14 days post-wounding, wound sizes were examined, and wound tissues were collected for RNA and protein extraction and fixed for histological examination. […] Cutaneous wounds were generated using a biopsy punch procedure resulting in a 4 mm diameter full thickness circular wound. Scale is in mm units.

[9] = test system: aggressive fibromatosis (AF) tumours; assay: Apc+/Apc1638N AF mouse model; type: in vivo; settings: male Apc/Apc1638N mice
Source text: The generation and phenotype of Apc/Apc1638N mice have been well characterized. These mice harbour a targeted mutation at codon 1638 in the Apc gene as a result of a neomycin insert in antisense orientation at exon 15. […] Treatment by daily oral gavaging began 2 months after Apc/Apc1638N mice were weaned and continued for 3 months. At autopsy, AF tumours and intestinal polyps were scored macroscopically. AF tumours and normal tissue were collected for protein extraction and fixed for histological examination.

β-catenin [10] = assay: Western blot of β-catenin in hyperplastic wound cell cultures; type: cell-based, human; settings: vs DMSO control
Description: as §4, with “reproducibility.” for “reproducibility. Hyperplastic wounds are characterized by elevated”, “in cell cultures from hyperplastic scars treated with Nefopam or control were analyzed using Western blot analysis. […] GAPDH expression was included as a loading control.” for “during the proliferative phase.”

CN1CCOC(c2ccccc2)c2ccccc2C1 (stereo not drawn) [Nefopam, 5-methyl-1-phenyl-1,3,4,6-tetrahydro-2,5-benzoxazocine]
percent cell survival [1]: remained relatively unchanged
percent BrdU+/DAPI+ cells (proliferation) [2]: significantly reduces the incorporation of BrdU; also recorded: significantly fewer proliferating cells
number of dead cells [3]: the number of dead cells did not change; also recorded: no significant differences in the number of dead cells
number of live cells [3]: significantly decreased the number of live cells; also recorded: significantly smaller number of live cells
β-catenin levels in wounds (β-catenin [4]): decrease in β-catenin levels
decrease in total β-catenin levels (densitometry) (β-catenin [5]; 250 μm Nefopam for 5 days vs 0.1% DMSO): ~5 fold
total β-catenin protein (92 kDa), Western blot (β-catenin [5]; treatment for 5 days): marked decrease in the amount of protein
percent cell survival [6]: significant decline in the percent of cells surviving
hyperplastic scar size (hyperplastic scars): smaller scars
decrease in total β-catenin levels (densitometry) (β-catenin [7]; human fibroblast cell cultures vs 0.1% DMSO): approximately 4 fold
total β-catenin protein levels, Western blot (β-catenin [7]; immortalized human fibroblast cells vs DMSO): significant decrease in total β-catenin protein levels
scar diameter [8]: significantly smaller in diameter
number of epithelial-derived polyps in the upper gastrointestinal tract ([9]; 40 mg/kg daily oral gavage): no significant differences
number of AF tumours formed ([9]; 40 mg/kg daily oral gavage for 3 months, at 6 months of age, mean ± 95% CI): 8.18±1.77
β-catenin protein levels (β-catenin [10]): substantially reduce β-catenin protein levels; also recorded: substantially reduced the protein level of β-catenin

— US9566263B2, “Methods and formulations for treating scars and β-catenin-mediated disorders” (Hospital for Sick Children, priority 2009, dated 2017)
